The values below come from paper PMC9386001, “Identification of naturally occurring inhibitors in Xian-Ling-Gu-Bao capsule against the glucuronidation of estrogens” (Frontiers in Pharmacology, 2022).

Series [1] is described as follows: Estrogen glucuronidation kinetics by HIM. It counts as in vitro ADME, human. Particulars: human, human intestine microsomes, pH 7.4, HIM, read-out: CL int or CL max. The procedure: (§1) All experiments were performed in triplicate.
(§2) Vg=Cs∗V/Cprotein∗T∗Vprotein. […] (5)

For series [2], the system named is human intestine microsomes (HIM). The series is described as follows: Estrogen glucuronidation kinetics by HIM. It counts as in vitro ADME. The note with it: HIM. As to the method:
as §1, §2

Series [3] is described as follows: Estrogen glucuronidation kinetics by HLM. Particulars: human, human liver microsomes, pH 7.4, HLM, read-out: CL int or CL max. It counts as in vitro ADME, human. As to the method: (§3) In brief, incubation mixtures (100 μL) contained Tris-HCl buffer solution (50 mM, pH = 7.4), microsomes (HLM, HIM, 0.5 mg/ml) or UGT enzymes (1 mg/ml), MgCl2 (0.88 mM), alamethicin (22 μg/ml), and D-saccharic-1,4-lactone (4.4 mM) and respective substrate. The volume of organic solvent in incubation mixtures was kept below 1%. After pre-incubation at 37°C for 5 min, the reaction was commenced with the addition of UDPGA (4 mM) and subsequently incubated at 37°C for a period. The reaction was terminated by adding 100 μL of cold acetonitrile. Then, the incubation mixtures were vortexed and centrifuged at 13,800 g for 10 min to collect the supernatant for analysis.
as §1
(§4) Glucuronidation rates were expressed as the amounts of formed metabolites per minute per milligram protein (pmol/min/mg protein) based on Eq. 1. Furthermore, kinetic characteristics were evaluated from the suitable curves based on the profile of the Eadie–Hofstee plot, and corresponding kinetic parameters were estimated using Eqs 2–4. Appropriated model fitting was performed by GraphPad Prism V5 software (San Diego, CA).
(§5) The intrinsic clearance (CL int ) was derived from V max /K m for Michaelis–Menten and substrate inhibition models, and the maximal clearance (CL max ) was obtained using Eq. 5 for Hill kinetics. Vg=Cs∗V/Cprotein∗T∗Vprotein. (1) V=Vmax×[S]/Km+[S], (2) V=Vmax×[S]/Km+[S](1+[S]/Ksi), (3) V=Vmax×[S]^n/S50n[…], (4) CLmax=Vmax/S50×n−1/n(n−1)^1/n. (5)

In series [4] the test system is human liver microsomes (HLM). The series is described as follows: Estrogen glucuronidation kinetics by HLM. It counts as in vitro ADME. Particulars: HLM. The procedure:
as §3, §1, §4, §5

The target of series [5] is T1, UGT2B7 (Homo sapiens, UniProt P16662).
T1 sequence (P16662 24-529): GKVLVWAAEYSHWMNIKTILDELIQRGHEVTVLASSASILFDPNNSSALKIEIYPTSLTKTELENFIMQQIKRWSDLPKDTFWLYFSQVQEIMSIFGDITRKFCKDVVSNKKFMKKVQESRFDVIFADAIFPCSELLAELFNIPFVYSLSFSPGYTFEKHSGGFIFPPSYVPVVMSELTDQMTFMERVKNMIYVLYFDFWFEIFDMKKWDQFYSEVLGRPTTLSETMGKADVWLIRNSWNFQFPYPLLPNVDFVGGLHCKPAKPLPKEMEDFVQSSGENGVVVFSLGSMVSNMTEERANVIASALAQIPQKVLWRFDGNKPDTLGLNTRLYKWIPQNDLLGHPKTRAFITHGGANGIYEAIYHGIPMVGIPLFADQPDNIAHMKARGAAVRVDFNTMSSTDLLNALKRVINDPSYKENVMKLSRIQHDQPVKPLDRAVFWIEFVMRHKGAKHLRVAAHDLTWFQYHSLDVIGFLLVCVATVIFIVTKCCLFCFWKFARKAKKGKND
The series is described as follows: Estrogen glucuronidation kinetics by expressed UGT2B7. The note with it: recombinant (expressed) UGT2B7, pH 7.4.

Each structure is given as a SMILES string.

With `C[C@]12CC[C@@H]3c4ccc(O)cc4CC[C@H]3[C@@H]1C[C@@H](O)[C@@H]2O` [E3, estriol], the microsomal CLint in series [1] (3-O-glucuronide formation) worked out at 10.74 ± 0.1 µL/min/mg; in series [1] (16-O-glucuronide formation), 109.4 ± 0.04 µL/min/mg; in series [3] (3-O-glucuronide formation), 1.58 ± 0.16 µL/min/mg; in series [3] (16-O-glucuronide formation), 542.32 ± 0.05 µL/min/mg; in series [5], 793.8 ± 0.07 µL/min/mg. For the same compound, the “K m or S50” value stood at 50.18 ± 4.40 µM in series [2] (3-O-glucuronide formation), 11.59 ± 0.49 µM in series [2] (16-O-glucuronide formation), 86.1 ± 12.39 µM in series [4] (3-O-glucuronide formation) and 11.91 ± 0.60 µM in series [4] (16-O-glucuronide formation).
